Measurements taken from publication PMC9161444, “In-Membrane Nanostructuring of Cationic Amphiphiles Affects Their Antimicrobial Efficacy and Cytotoxicity: A Comparison Study between a De Novo Antimicrobial Lipopeptide and Traditional Biocides” (Langmuir, 2022).
Where “and” joins values, the source holds several entries; their conditions need not be identical. Equal entries are not always repeated. Where two headings read alike, the source gives them in different places.

Key:
[1] = Neutron reflectivity of amphiphile binding to lipid monolayer; conditions: C14KKGGII 5 μM, C14TAB 2.5 μM, C12TAB 75 μM; for Γamphiphile, amount bound to DPPC monolayer / Γamphiphile, amount bound to DPPG monolayer: monolayer at 28 mN/m; for DPPG lipid removed from monolayer: NR
Description: Single-component lipid monolayer models in a Langmuir trough (12.5 cm × 15 cm, Nima Technology Ltd., UK) were employed to investigate interactions between amphiphiles and lipids. The trough was filled with 70 mL of PBS at room temperature to provide a physiological environment.[23]−[25] Saturated head-charged lipid DPPG and saturated zwitterionic DPPC monolayers, mimicking negatively charged microbial membranes and mammalian cell membranes, respectively, were formed, and their interactions with amphiphiles were controlled by injecting each amphiphile carefully from outside the trough barrier. The lipids were dissolved in a chloroform/methanol mixture (v/v 9:1) to form the spreading solution. The lipid monolayer was spread by dripping the lipid solution onto the surface of the PBS solution. Following stabilization of the surface pressure, three cycles of isothermal compression and expansion were carried out to make the monolayer homogeneous. The surface was controlled at an initial pressure of 28 mN/m to mimic the static pressure within cell membranes. The final concentration of the amphiphile after injection was 1/40 of its CAC value for C14TAB, while the final concentration was 3/40 CAC for C12TAB because of its relatively higher MICs. Surface pressure changes with time following the injection process were recorded and analyzed.
Monolayer models described above were characterized using neutron reflectivity (NR) to measure the component distribution normal to the air/liquid interface. Measurements were performed on the SURF reflectometer at the ISIS Neutron and Muon Source (STFC Rutherford Appleton Laboratory, Didcot, UK).[23]−[25] The instrument provided a momentum transfer (Q) range from 0.01 to 0.5 Å^–1 [Q = […], where λ is the wavelength of the incoming neutron beam and θ is the incident angle]. At the start of the NR measurements, the reflectivity of the air/D2O interface was used for instrument calibration. Monolayers were prepared on the beamline. For each interaction, different isotopic contrasts were examined by applying chain-deuterated or fully hydrogenated versions of lipids (d62-DPPG, DPPG, d62-DPPC, and DPPC, denoted as dDPPG, hDPPG, dDPPC, and hDPPC, respectively) on the surface of PBS in D2O or null reflecting water (NRW, H2O/D2O = 91.9%/8.1%, v/v) and injecting deuterated or protonated versions of amphiphiles (C14KKGGII, dC14KKGGII, C12TAB, dC12dTAB, and C14TAB, denoted as hC14KKGGII, dC14KKGGII, hC12TAB, dC12TAB, and hC14TAB, respectively) from underneath the lipid monolayer outside the trough barrier bar. Reflectivity profiles from lipid monolayers were scanned before amphiphile injection to ensure good monolayer reproducibility. Raw data were reduced using Mantid software, and the resultant NR profiles were fitted via the least squares method using a Motofit package on Igor 6, where a multilayer model was employed in the analysis. The thickness and scattering length density (SLD, Nb) of each layer, that is, lipid tail region, lipid head region, and lipopeptide region, were fitted to the data. The SLD of each layer is related to the volume fractions of its components and could be calculated using Nb = ∑iφiNbi, where i denotes each component, for example, the solvent, lipid tails, lipid heads, lipopeptides’ acyl chains, and lipopeptides’ amino acids, and φi represents the volume fraction of component i and is constrained by ∑iφi = 1 in each layer. More details about the division of the molecular head/tail groups and relevant fitting parameters can be found in Figure S3 and Tables S3 and S4.

[2] = Fluorescein (CF) leakage from SUVs; conditions: for threshold concentration of fast leakage increase, PC/PG SUVs: end of the low leakage induction range; for concentration for 20% leakage, PC/Chol. vesicles / concentration for 20% leakage, PC/PG vesicles / concentration for 100% leakage, PC/Chol. vesicles / concentration for 100% leakage, PC/PG vesicles / concentration for minimal leakage, PC/Chol. vesicles / concentration for minimal leakage, PC/PG vesicles / EC50: CF-SUVs 0.25 mg/mL in TBS pH 7.2, fluorescence ex 480/em 520 nm, read from Figure 5
Description: Lipid SUVs with single or multiple components were used to model different biomembranes. In this work, two lipid mixtures with different surface charges were used to mimic bacterial inner membranes with the molar ratio of POPC/POPG of 7:3 and mammalian cytoplasmic cell membranes with a molar ratio of POPC/cholesterol of 1:1. Lipids (or cholesterol) were dissolved and mixed in chloroform, and then, the solvent was removed via evaporation and lyophilization. Dry lipids were dissolved in Tris buffered saline (TBS, containing 10 mM Tris-HCl and 154 mM NaCl, with a final pH of 7.2) and were fully dispersed via sonication. After five freeze/thaw loops of the lipid solution, SUVs were prepared by extruding 31 times using an Avanti Polar Lipids mini extruder. SUV solutions were diluted to 0.5 mg/ml for further use.
Concentration effects of the binding of amphiphiles to lipid SUVs were examined by means of fluorescein leakage. 5(6)-Carboxyfluorescein (CF)-entrapped SUVs (CF-SUVs) were prepared as described previously,[26] except that dried lipids were dissolved into 40 mM TBS solution of CF before the freeze/thaw loop. After extrusion, CF-SUVs were separated from unentrapped fluorescein molecules using a Sephadex G50 chromatography column. Amphiphile solutions of various concentrations were then blended in a 1:1 ratio with CF-SUVs, giving a mixture of amphiphiles of the desired concentration and CF-SUVs of concentration 0.25 mg/mL. A Thermo Scientific Varioskan LUX was employed to determine the amount of released CF in each sample by measuring their emission intensity I520, with an excitation wavelength of 480 nm and an emission wavelength of 520 nm. CF-SUVs alone and with added 0.2% Triton-X were measured as positive and negative controls (I+ and I–), respectively. The percentage of leakage L for each sample was calculated using Ln = (In,520 – I+)/(I– – I+) × 100%.

[3] = previous findings by Lu et al.; cited from earlier work
Description: From the best fitted surface tension parameters (listed in Table S2), the area per molecule (APM) could be calculated from eq 4 for each amphiphile at its respective CAC. […] This is in line with the previous findings by Lu et al., which stated that APMs of C10TAB, C12TAB, C14TAB, C16TAB, and C18TAB adsorbed on the surface of water were 55 ± 3, 50 ± 2, 48 ± 3, 43 ± 3, and 43 ± 3 Å^2, respectively.[29]−[33] Each lipopeptide molecule occupied around 79 ± 10 Å^2 at ...

[4] = read-out: concentration for 50% leakage, PC/Chol. vesicles
[5] = read-out: concentration for 50% leakage, PC/PG vesicles

Compound	Γlipid, DPPC remaining on the surface after amphiphile binding ([1]; NR best fit, DPPC monolayer at 28 mN/m, 3.08 ± 0.08 before) [μmol/m^2]	Γlipid, DPPG remaining on the surface after amphiphile binding ([1]; NR best fit, DPPG monolayer at 28 mN/m, 3.35 ± 0.01 before) [μmol/m^2]	Γamphiphile, amount bound to DPPC monolayer ([1]; NR best fit) [μmol/m^2]	Γamphiphile, amount bound to DPPG monolayer ([1]; NR best fit) [μmol/m^2]	DPPG lipid removed from monolayer [1] [%]	concentration above which fast leakage was induced, PC/chol SUVs ([2]; CF leakage, end of the low leakage induction period) [µM]	threshold concentration of fast leakage increase, PC/PG SUVs ([2]; CF leakage) [µM]	concentration for 20% leakage, PC/Chol. vesicles [2] [µM]	concentration for 20% leakage, PC/PG vesicles [2] [µM]	concentration for 100% leakage, PC/Chol. vesicles [2] [µM]	concentration for 100% leakage, PC/PG vesicles [2]	concentration for minimal leakage, PC/Chol. vesicles [2]	concentration for minimal leakage, PC/PG vesicles [2]	EC50 [2, 4] [µM]	EC50 [2, 5] [µM]	leakage, PC/PG SUVs ([2]; at 256 μM) [%]	leakage, PC/PG SUVs ([2]; from 16 to 75 μM)	APM adsorbed on the surface of water [3] [Å^2]	maximum leakage, PC/chol SUVs ([2]; at 100 μM and above) [%]
CCCCCCCCCCCC[N+](C)(C)C.[Br-] [C12TAB, dodecyltrimethylammonium bromide]	2.55 ± 0.01	2.70 ± 0.20	0.98 ± 0.02	1.51 ± 0.01	22	~70	75	500	125	>2000	above 1000 μM and 1000 μM	10 µM	around 16 μM and 75 μM	2000	256	60	less than 10%	50 ± 2	–
CCCCCCCCCCCCCC[N+](C)(C)C.[Br-] [C14TAB, tetradecyltrimethylammonium bromide]	–	–	1.10 ± 0.01	1.43 ± 0.02	19	–	16	10	30	>500	500 µM	around 4 μM	4 µM	100	50	–	–	48 ± 3	50
